Legend:
bedstraw = experiment: Test B pre/postemergence bedstraw; assay type: in vivo, Galium aparine
How it was run: (§1)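 Herbicidal effect was estimated by eye on a ten-point control scale after plants spent twelve to sixteen days in a greenhouse following soil or foliar treatment. Foliar sprays targeted plants at one to four leaves; all doses were formulated in a non-phytotoxic solvent with surfactant.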

blackgrass = experiment: Test B pre/postemergence blackgrass; assay type: in vivo, Alopecurus myosuroides
How it was run: as §1

surinam grass = experiment: Test B pre/postemergence surinam grass; assay type: in vivo, Brachiaria decumbens
How it was run: as §1

cocklebur = experiment: Test B pre/postemergence cocklebur; assay type: in vivo, Xanthium strumarium
How it was run: as §1

giant foxtail = experiment: Test B pre/postemergence giant foxtail; assay type: in vivo, Setaria faberii
How it was run: as §1

morningglory = experiment: Test B pre/postemergence morningglory; assay type: in vivo, Ipomoea hederacea
How it was run: as §1

pigweed = experiment: Test B pre/postemergence pigweed; assay type: in vivo, Amaranthus retroflexus
How it was run: as §1

rape = experiment: Test B pre/postemergence rape; assay type: in vivo, Brassica napus
How it was run: as §1

soybean = experiment: Test B pre/postemergence soybean; assay type: in vivo, Glycine max
How it was run: as §1

sugar beet = experiment: Test B pre/postemergence sugar beet; assay type: in vivo, Beta vulgaris; conditions: for Plant response rating, Sugarbeets: Rate 250 g/ha
How it was run: as §1

wheat = experiment: Test B pre/postemergence wheat; assay type: in vivo, Triticum aestivum; conditions: for Plant response rating, Wheat: Rate 250 g/ha
How it was run: as §1

wild oat = experiment: Test B pre/postemergence wild oat; assay type: in vivo, Avena fatua; conditions: for Plant response rating, Wild oats: Rate 250 g/ha
How it was run: as §1

purple nutsedge = experiment: Test B pre/postemergence purple nutsedge; assay type: in vivo, Cyperus rotundus
How it was run: as §1

smallflower flatsedge = experiment: Test B flood test smallflower flatsedge; assay type: in vivo, Cyperus difformis
How it was run: (§2)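 Plants were grown to the 2-leaf stage before treatment with test chemical, then held in a greenhouse for twelve to sixteen days. Injury was visually rated against untreated controls on a 0–10 scale, where 0 is no effect and 10 is complete control.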

duck salad = experiment: Test B flood test duck salad; assay type: in vivo, Heteranthera limosa
How it was run: as §2

bamyardgrass = experiment: Test B flood test barnyardgrass; assay type: in vivo, Echinochloa crus-galli
How it was run: as §2

[1] = Postemergence, Rate 62 g/ha, scale 0 to 10, 0 is no effect, 10 is complete control
[2] = Postemergence, Rate 250 g/ha, scale 0 to 10, 0 no effect, 10 complete control
[3] = Preemergence, Rate 62 g/ha, scale 0 to 10 (0 no effect, 10 complete control)
[4] = Preemergence, Rate 125 g/ha, scale 0 to 10 (0 no effect, 10 complete control)
[5] = Preemergence, Rate 250 g/ha, scale of 0 to 10 where 0 is no effect and 10 is complete control
[6] = Preemergence, Rate 500 g/ha, scale 0 to 10 (0 no effect, 10 complete control)
[7] = Rate 125 g/ha, Postemergence, scale 0 to 10, 0 no effect, 10 complete control
[8] = Rate 500 g/ha, Postemergence, scale 0 to 10, 0 no effect, 10 complete control
[9] = Postemergence, Rate 125 g/ha, scale of 0 to 10 where 0 is no effect and 10 is complete control
[10] = Rate 62 g/ha, Postemergence, scale of 0 to 10 where 0 is no effect and 10 is complete control
[11] = Rate 250 g/ha, Postemergence, scale 0 to 10, 0 is no effect, 10 is complete control
[12] = Preemergence, Rate 125 g/ha, 0 is no effect, 10 is complete control
[13] = Preemergence, scale of 0 to 10 where 0 is no effect and 10 is complete control
[14] = Postemergence, scale 0 to 10, 0 is no effect, 10 is complete control
[15] = Postemergence (flood test species), Rate 125 g/ha, scale of 0 to 10 where 0 is no effect and 10 is complete control
[16] = Rate 62 g/ha, Postemergence section, flood test species, scale of 0 to 10 where 0 is no effect and 10 is complete control
[17] = Rate 250 g/ha, headed Pre-emergence (flood test species), scale 0 to 10 (0 no effect, 10 complete control)
[18] = Rate 500 g/ha, headed Pre-emergence (flood test species), scale 0 to 10 (0 no effect, 10 complete control)
[19] = Rate 500 g/ha, listed under Postemergence (flood test species), scale 0 to 10, 0 no effect, 10 complete control
[20] = Rate 2000 g/ha, Pre-emergence (as headed), scale 0 to 10
[21] = Rate 1000 g/ha, Pre-emergence (as headed), scale 0 to 10
[22] = flood test, listed under Postemergence, Rate 250 g/ha, scale 0 to 10, 0 no effect, 10 complete control

C=CCn1c(=O)on(C(=O)N(c2ccc(Cl)cc2)C(C)C)c1=O [Compound 105]
1: Plant response rating, B. signalgrass (surinam grass; [4]) | Cocklebur plant response rating (cocklebur; [2]) | Plant response rating, Rape (rape; [4]) | Soybean plant response rating (soybean; [9]) | Soybean plant response rating (soybean; [10]) | Sugarbeets plant response rating (0 to 10 scale) (sugar beet; [12])
6: Blackgrass plant response rating (blackgrass; [9]) | Rape plant response rating (rape; [6]) | Soybean plant response rating (soybean; [8])
2: Bedstraw plant response rating (bedstraw; [2]) | Blackgrass plant response rating (blackgrass; [10]) | B. signalgrass plant response rating (surinam grass; [7]) | Giant foxtail plant response rating (giant foxtail; [10]) | Morningglory plant response rating (morningglory; [9]) | Rape plant response rating (rape; [8]) | Wheat plant response rating (wheat; [6]) | Wheat plant response rating (wheat; [8]) | Wild oats plant response rating (wild oat; [3]) | Plant response rating, Wild oats (wild oat; [14]) | Nutsedge plant response rating (purple nutsedge; [8])
0: Bedstraw plant response rating (bedstraw; [1]) | Bedstraw plant response rating (bedstraw; [3]) | Plant response rating, Bedstraw (bedstraw; [4]) | Plant response rating, Bedstraw (bedstraw; [5]) | Bedstraw plant response rating (bedstraw; [7]) | B. signalgrass plant response rating (surinam grass; [1]) | B. signalgrass plant response rating (surinam grass; [3]) | Cocklebur plant response rating (cocklebur; [9]) | Cocklebur plant response rating (cocklebur; [3]) | Plant response rating, Cocklebur (cocklebur; [4]) | Plant response rating, Cocklebur (cocklebur; [5]) | Cocklebur plant response rating (cocklebur; [6]) | Cocklebur plant response rating (cocklebur; [10]) | Morningglory plant response rating (morningglory; [3]) | Plant response rating, Morningglory (morningglory; [4]) | Plant response rating, Morningglory (morningglory; [5]) | Morningglory plant response rating (morningglory; [6]) | Redroot pigweed plant response rating (pigweed; [9]) | Redroot pigweed plant response rating (pigweed; [3]) | Redroot pigweed plant response rating (pigweed; [10]) | Plant response rating, Redroot pigweed (pigweed; [11]) | Rape plant response rating (rape; [9]) | Rape plant response rating (rape; [2]) | Rape plant response rating (rape; [3]) | Rape plant response rating (rape; [10]) | Soybean plant response rating (soybean; [3]) | Plant response rating, Soybean (soybean; [4]) | Plant response rating, Soybean (soybean; [5]) | Soybean plant response rating (soybean; [6]) | Sugarbeets plant response rating (sugar beet; [9]) | Sugarbeets plant response rating (sugar beet; [3]) | Sugarbeets plant response rating (sugar beet; [10]) | Plant response rating, Sugarbeets (sugar beet; [14]) | Sugarbeets plant response rating (sugar beet; [8]) | Wheat plant response rating (wheat; [9]) | Wheat plant response rating (wheat; [3]) | Wheat plant response rating (0 to 10 scale) (wheat; [12]) | Plant response rating, Wheat (wheat; [13]) | Wheat plant response rating (wheat; [10]) | Plant response rating, Wheat (wheat; [14]) | Wild oats plant response rating (wild oat; [9]) | Wild oats plant response rating (wild oat; [10]) | Nutsedge plant response rating (purple nutsedge; [9]) | Nutsedge plant response rating (purple nutsedge; [2]) | Nutsedge plant response rating (purple nutsedge; [3]) | Plant response rating, Nutsedge (purple nutsedge; [4]) | Plant response rating, Nutsedge (purple nutsedge; [5]) | Nutsedge plant response rating (purple nutsedge; [6]) | Nutsedge plant response rating (purple nutsedge; [10]) | S. Flatsedge plant response rating (smallflower flatsedge; [15]) | S. Flatsedge plant response rating (smallflower flatsedge; Pre-emergence, Rate 1000 g/ha, scale 0 to 10 (0 no effect, 10 complete control)) | S. Flatsedge plant response rating (smallflower flatsedge; [16]) | Plant response rating, S. Flatsedge (smallflower flatsedge; Rate 250 g/ha, Postemergence (flood test), scale 0 to 10, 0 is no effect, 10 is complete control) | S. Flatsedge plant response rating (smallflower flatsedge; [17]) | Plant response rating, S. Flatsedge (smallflower flatsedge; [18]) | S. Flatsedge plant response rating (smallflower flatsedge; [19]) | S. Flatsedge plant response rating (smallflower flatsedge; [20]) | Ducksalad plant response rating (duck salad; [15]) | Ducksalad plant response rating (duck salad; [16]) | Ducksalad plant response rating (duck salad; [17]) | Plant response rating, Ducksalad (duck salad; [18]) | Ducksalad plant response rating (duck salad; [19]) | Ducksalad plant response rating (duck salad; [21]) | Ducksalad plant response rating (duck salad; [20]) | Ducksalad plant response rating (duck salad; [22]) | Barnyardgrass plant response rating (bamyardgrass; [1]) | Barnyardgrass plant response rating (bamyardgrass; Rate 125 g/ha, Postemergence section (flood test species), scale 0 to 10, 0 no effect, 10 complete control) | Barnyardgrass plant response rating (bamyardgrass; [17]) | Plant response rating, Barnyardgrass (bamyardgrass; [18]) | Barnyardgrass plant response rating (bamyardgrass; [19]) | Barnyardgrass plant response rating (bamyardgrass; [21]) | Barnyardgrass plant response rating (bamyardgrass; Rate 2000 g/ha, Pre-emergence (as headed), scale 0 to 10, 0 no effect, 10 complete control) | Barnyardgrass plant response rating (bamyardgrass; [22])
4: Cocklebur plant response rating (cocklebur; [8]) | Morningglory plant response rating (morningglory; [8]) | Plant response rating, Rape (rape; [5]) | Plant response rating, Sugarbeets (sugar beet; [13]) | Wild oats plant response rating (wild oat; [8])
8: Plant response rating, Blackgrass (blackgrass; [5]) | Blackgrass plant response rating (blackgrass; [8]) | Giant foxtail plant response rating (giant foxtail; [8])
7: Blackgrass plant response rating (blackgrass; [2]) | Plant response rating, Blackgrass (blackgrass; [4]) | Giant foxtail plant response rating (giant foxtail; [2])
9: Plant response rating, Redroot pigweed (pigweed; [5]) | Sugarbeets plant response rating (sugar beet; [6]) | Wild oats plant response rating (wild oat; [6])
5: Bedstraw plant response rating (bedstraw; [6]) | Blackgrass plant response rating (blackgrass; [3]) | Plant response rating, B. signalgrass (surinam grass; [5])
3: Bedstraw plant response rating (bedstraw; [8]) | B. signalgrass plant response rating (surinam grass; [2]) | B. signalgrass plant response rating (surinam grass; Rate 500 g/ha, Postemergence, scale of 0 to 10 where 0 is no effect and 10 is complete control) | Giant foxtail plant response rating (giant foxtail; [9]) | Morningglory plant response rating (morningglory; [2]) | Plant response rating, Redroot pigweed (pigweed; [4]) | Redroot pigweed plant response rating (pigweed; [8]) | Plant response rating, Soybean (soybean; [11]) | Wild oats plant response rating (0 to 10 scale) (wild oat; [12]) | Plant response rating, Wild oats (wild oat; [13])
10: Blackgrass plant response rating (blackgrass; [6]) | B. signalgrass plant response rating (surinam grass; [6]) | Giant foxtail plant response rating (giant foxtail; [3]) | Plant response rating, Giant foxtail (giant foxtail; [4]) | Plant response rating, Giant foxtail (giant foxtail; [5]) | Giant foxtail plant response rating (giant foxtail; [6]) | Redroot pigweed plant response rating (pigweed; [6])

Reference: patent publication US6737383B1, “Herbicidal oxadiazolidines” (priority 1999, dated 2004)
